# Experiment: activity of peptide, test not specified
substance,measurement,value
CYS-THR-THR-ASN-TYR-THR-CYS (CTTNYTC; printed: CYS-THR-THR-ASN-TYR-THR-CYS) [seven amino acid peptide],activity,active

# From patent EP0249390A2, “Synthetic peptides related to the HIV glycoprotein gp 120” (Pert, Candace B., priority 1986, dated 1987)
